From ChEMBL document CHEMBL1127438, “Substituted (S)-phenylpiperidines and rigid congeners as preferential dopamine autoreceptor antagonists: synthesis and structure-activity relationships” (J Med Chem, 1994) come the findings set out here.

What is called Ki is a measure of affinity in units of concentration, obtained from inhibition or displacement.

For assay [1], the system named is Rattus norvegicus. Put plainly: Evaluated for DOPAC level in nonpretreated habituated rats after subcuteneous dose of 100 micro mol/kg in rat striatum. It counts as functional.
Assay [2] concerns Rattus norvegicus. As to the kind of experiment: Evaluated biochemically in nonpretreated habituated rats for (100 uM/kg) subcuteneous dose, Value expressed as locomotor activity (LMA). It counts as functional.
In assay [3] the test system is Rattus norvegicus. As to the kind of experiment: Effect of (60 min after administration of 200 (uM/kg) subcuteneous dose on DA release in brain dialysis model of rat striatum; Values expressed as percent of saline controls. The class given is functional.
Assay [4] has as its target T1, D(3) dopamine receptor (Homo sapiens, UniProt P35462). Put plainly: Tested for in vitro binding affinity against cloned mammalian dopamine D3 receptor, expressed in CHO-K1 cells, using [3H]spiperone as radioligand. The class given is cell-based.
For assay [5], the target named is T2, D(2) dopamine receptor (Homo sapiens, UniProt P14416). Put plainly: biochemical.
T2 sequence (P14416 whole entry): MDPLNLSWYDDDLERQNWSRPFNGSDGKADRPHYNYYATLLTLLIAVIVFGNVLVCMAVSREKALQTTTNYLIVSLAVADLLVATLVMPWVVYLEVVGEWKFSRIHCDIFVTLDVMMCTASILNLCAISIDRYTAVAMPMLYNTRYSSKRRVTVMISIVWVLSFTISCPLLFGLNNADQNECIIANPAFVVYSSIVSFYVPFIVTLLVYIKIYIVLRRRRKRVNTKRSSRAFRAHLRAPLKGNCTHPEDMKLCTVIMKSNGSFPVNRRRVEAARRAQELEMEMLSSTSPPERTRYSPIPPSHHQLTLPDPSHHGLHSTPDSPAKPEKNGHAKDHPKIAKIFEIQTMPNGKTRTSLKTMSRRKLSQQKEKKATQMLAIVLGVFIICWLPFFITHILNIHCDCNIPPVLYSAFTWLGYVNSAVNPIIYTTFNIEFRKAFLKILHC
Description: In vitro binding affinity against cloned mammalian dopamine D2 autoreceptor, expressed in CHO-K1 cells, using [3H]U-86170 as radioligand
For assay [6], the target named is T2, D(2) dopamine receptor. As to the kind of experiment: biochemical. This is another data set of the same source.
Description: Affinity against recombinant dopamine receptor (DA) D2 expressed in CHO-K1 cells, using [3H]-spiperone as radioligand
Assay [7] has as its target T3, D(2) dopamine receptor (Rattus norvegicus, UniProt P61169).
Description: Affinity against striatal dopamine D2 receptors using [3H]spiperone as radioligand in rats.
The test system of assay [8] is Rattus norvegicus. Put plainly: Evaluated for locomotor activity in nonpretreated habituated rats in 100 umol/kg of subcuteneous dose. It counts as functional. Further details: unit not given here.
The target of a further assay is Dopamine receptor. Put plainly: Tested for in vitro binding affinity against cloned mammalian dopamine autoreceptor (DA) receptors expressed in CHO-K1 cells using [3H]U-86170 as radioligand. It counts as cell-based.
Assay [9] has as its target T1, D(3) dopamine receptor. Put plainly: Tested for in vitro binding affinity against cloned mammalian dopamine autoreceptor (DA) receptors expressed in CHO-K1 cells [3H]-spiperone as radioligand. The class given is cell-based.
The test system of assay [10] is Rattus norvegicus. As to the kind of experiment: Evaluated for biochemical levels of DOPAC in nonpretreated habituated rats for subcuteneous dose of 100 micro mol/kg in rat striatum. It counts as functional.
The test system of assay [11] is Rattus norvegicus. As to the kind of experiment: Evaluated biochemically in nonhabituated rats for (100 umol/kg) subcuteneous dose, Value expressed as locomotor activity (LMA). It counts as functional.
Assay [12] has as its system Rattus norvegicus. Put plainly: Evaluated for DOPA accumulation (DOPAacc) level in nonhabituated rats after subcuteneous dose (100 uM/kg) in rat striatum. The class given is functional.
Assay [13] deals with Rattus norvegicus. As to the kind of experiment: Evaluated biochemically in reserpine-pretreated habituated rats for (100 umol/kg) subcuteneous dose in rat striatum (DOPAacc), Value expressed as counts/30 min. It counts as functional.
The target in assay [14] is T3, D(2) dopamine receptor. As to the kind of experiment: Tested for affinity against striatal dopamine autoreceptor (DA) D2 receptors using [3H]spiperone as radioligand in rats.
Assay [15] relates to Rattus norvegicus. Put plainly: Evaluated biochemically in reserpine-pretreated habituated rats for (100 umol/kg) subcuteneous dose, Value expressed as locomotor activity (LMA). It counts as functional.

SMILES strings stand for the structures.

T1 sequence (P35462 whole entry): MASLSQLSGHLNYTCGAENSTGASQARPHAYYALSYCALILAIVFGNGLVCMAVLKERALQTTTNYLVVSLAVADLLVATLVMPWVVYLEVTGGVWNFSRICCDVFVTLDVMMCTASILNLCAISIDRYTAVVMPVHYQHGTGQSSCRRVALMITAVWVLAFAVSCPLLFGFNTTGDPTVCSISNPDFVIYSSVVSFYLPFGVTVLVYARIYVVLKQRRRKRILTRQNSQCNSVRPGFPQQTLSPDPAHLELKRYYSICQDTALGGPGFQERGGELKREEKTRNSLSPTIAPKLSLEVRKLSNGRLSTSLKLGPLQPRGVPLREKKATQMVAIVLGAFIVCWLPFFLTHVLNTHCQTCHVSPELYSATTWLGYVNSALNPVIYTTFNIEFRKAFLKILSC
T3 sequence (P61169 whole entry): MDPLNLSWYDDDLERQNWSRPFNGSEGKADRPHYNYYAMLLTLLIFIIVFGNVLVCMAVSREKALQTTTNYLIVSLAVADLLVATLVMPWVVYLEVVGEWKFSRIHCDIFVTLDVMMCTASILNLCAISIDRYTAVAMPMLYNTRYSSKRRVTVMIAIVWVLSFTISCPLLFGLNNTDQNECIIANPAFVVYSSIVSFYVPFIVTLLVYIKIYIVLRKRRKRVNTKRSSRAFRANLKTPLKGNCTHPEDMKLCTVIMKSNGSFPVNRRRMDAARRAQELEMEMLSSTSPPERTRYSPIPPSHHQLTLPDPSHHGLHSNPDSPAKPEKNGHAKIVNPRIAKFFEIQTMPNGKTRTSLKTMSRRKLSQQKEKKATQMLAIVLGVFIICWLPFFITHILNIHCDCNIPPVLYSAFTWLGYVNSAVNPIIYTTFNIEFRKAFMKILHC

For `CCCN[C@@H]1CCc2c(OC)cccc2[C@@H]1C`, the Activity in the assay with Rattus norvegicus [1] is given as 346%. Besides, the Control with Rattus norvegicus [2] is 354%.
`C=CCN1CC[C@H]2c3cccc(OC)c3CC[C@H]21`: in the assay on Rattus norvegicus [1], the Activity is 314%. For the same molecule, in the assay with Rattus norvegicus [2], the Control amounted to 182%.
With `CCCN1CCC[C@@H](c2cccc(-c3ccsc3)c2)C1`, the Activity in the assay with Rattus norvegicus [1] worked out at 88%; with Rattus norvegicus [3], 106%. The Ki at D(3) dopamine receptor [4] is 78 nM; on D(2) dopamine receptor [5], 134 nM; on D(2) dopamine receptor [6], over 217 nM; at D(2) dopamine receptor [7], 760 nM. In the assay with Rattus norvegicus [2], the Control was 229%.
As for `CCCN1CCC[C@@H](c2ccc(OS(=O)(=O)C(F)(F)F)c(OS(=O)(=O)C(F)(F)F)c2)C1`, in the assay with Rattus norvegicus [8], the LMA is on record as 36. Besides, the Ki was 1100 nM on Dopamine receptor, 338 nM at D(3) dopamine receptor [9] and over 217 nM at D(2) dopamine receptor [6]. For the same molecule, in the assay on Rattus norvegicus [10], the Activity amounted to 96%.
On to `N#Cc1cccc([C@@H]2CCCN(CC3CC3)C2)c1`, for which, in the assay on Rattus norvegicus [11], the “Locomotor activity (% of control)” value is given as 191%. The Ki is 522 nM at D(3) dopamine receptor [4], 519 nM on D(2) dopamine receptor [5] and over 217 nM on D(2) dopamine receptor [6].
As for `CCCN1CCC[C@@H](c2cccc(S(=O)(=O)N(C)C)c2)C1`, the Activity with Rattus norvegicus [1] turned out to be 355%; with Rattus norvegicus [3] it was 220%. For the same molecule, the values for the Ki at D(3) dopamine receptor [4] and at D(2) dopamine receptor [7] were 170 nM and 3390 nM, respectively. The Control with Rattus norvegicus [2] came to 548%.
Turning to `CN1CCC[C@@H](c2cccc(C#N)c2)C1`, the Activity is 174% in the assay on Rattus norvegicus [1] and 215% in the assay with Rattus norvegicus [12]. Also, the “Locomotor activity (% of control)” value in the assay on Rattus norvegicus [11] is recorded as 79%. Also, the inhibition constant (Ki) is 1760 nM at D(3) dopamine receptor [4], 1040 nM at D(2) dopamine receptor [5], over 217 nM on D(2) dopamine receptor [6] and 8330 nM on D(2) dopamine receptor [7].
`CCN1CCC[C@@H](c2cccc(C#N)c2)C1`: the Activity with Rattus norvegicus [1] is given as 264%; with Rattus norvegicus [3], 212%; with Rattus norvegicus [12], 318%. Also, the “Locomotor activity (% of control)” value with Rattus norvegicus [11] is listed as 113%. Also, the inhibitory constant (Ki) at D(3) dopamine receptor [4] is 514 nM; at D(2) dopamine receptor [5], 235 nM; on D(2) dopamine receptor [6] it was over 217 nM; at D(2) dopamine receptor [7], 2330 nM. In the assay on Rattus norvegicus [2], the Control is recorded as 351%.
`C#CCN1CCC[C@@H](c2cccc(C#N)c2)C1`: the Activity in the assay on Rattus norvegicus [1] was 146%. In addition, the inhibitory constant (Ki) is over 1360 nM on D(3) dopamine receptor [4], 1180 nM on D(2) dopamine receptor [5], over 217 nM at D(2) dopamine receptor [6] and over 15000 nM at D(2) dopamine receptor [7]. In addition, in the assay with Rattus norvegicus [2], the Control came to 297%.
`CCCN1CCC[C@@H](c2cccc(C(N)=O)c2)C1`: the Activity with Rattus norvegicus [1] was determined as 114%; in the assay on Rattus norvegicus [13], 97%. Also, the Ki on D(3) dopamine receptor [4] was over 1280 nM; at D(2) dopamine receptor [5], over 1850 nM; at D(2) dopamine receptor [6], over 217 nM; on D(2) dopamine receptor [7] it was over 15000 nM. Further, the Control in the assay with Rattus norvegicus [2] amounted to 203%.
As for `CCCN1CCC2c3cccc(OS(=O)(=O)C(F)(F)F)c3CCC21` (stereo not given), the LMA in the assay with Rattus norvegicus [8] was found to be 687. The Ki is 89 nM on Dopamine receptor, 61 nM at D(3) dopamine receptor [9], 82 nM on D(2) dopamine receptor [14] and over 217 nM at D(2) dopamine receptor [6]. Also, in the assay with Rattus norvegicus [10], the Activity was found to be 223%.
Turning to `C=CCN1CCC2c3cccc(C#N)c3CCC21` (stereo not given), the Activity in the assay with Rattus norvegicus [1] worked out at 172%. In addition, the Ki at D(3) dopamine receptor [4] is over 455 nM; on D(2) dopamine receptor [5], 984 nM; at D(2) dopamine receptor [7] it was over 172 nM. Further, the Control in the assay on Rattus norvegicus [2] is recorded as 292%.
As to `CCCN1CCC[C@@H](c2cccc(C)c2)C1`, the Ki at Dopamine receptor was 430 nM; at D(3) dopamine receptor [9], 573 nM; on D(2) dopamine receptor [14] it was 930 nM; on D(2) dopamine receptor [6] it was over 217 nM.
In the case of `CCCN1CCC[C@@H](c2cccc(NS(=O)(=O)C(F)(F)F)c2)C1`, the Activity in the assay with Rattus norvegicus [1] is recorded as 91%. The results for the inhibition constant (Ki) at D(3) dopamine receptor [4] and on D(2) dopamine receptor [6] were over 2000 nM and over 217 nM, respectively. Moreover, the Control in the assay with Rattus norvegicus [2] worked out at 305%.
`CC(C)N1CCC[C@@H](c2cccc(C#N)c2)C1`: the “Locomotor activity (% of control)” value in the assay with Rattus norvegicus [11] stood at 102%. The Ki on D(3) dopamine receptor [4] was 268 nM; on D(2) dopamine receptor [5], 106 nM; on D(2) dopamine receptor [6], over 217 nM; on D(2) dopamine receptor [7] it was 717 nM. In addition, the Control with Rattus norvegicus [2] is given as 366%. Also, the Activity in the assay on Rattus norvegicus [12] turned out to be 301%.
On to `N#Cc1cccc([C@@H]2CCCN(CCc3ccccc3)C2)c1`, for which the “Locomotor activity (% of control)” value in the assay with Rattus norvegicus [11] is 120%. The Ki is 59 nM at D(3) dopamine receptor [4], 22 nM at D(2) dopamine receptor [5], over 217 nM at D(2) dopamine receptor [6] and 105 nM on D(2) dopamine receptor [7]. Besides, the Control in the assay with Rattus norvegicus [2] is 510%. This molecule had an Activity with Rattus norvegicus [12] of 176%.
Consider `N#Cc1cccc([C@@H]2CCCNC2)c1`, for which the Activity is given as 167% in the assay on Rattus norvegicus [1] and 271% in the assay on Rattus norvegicus [12]. The “Locomotor activity (% of control)” value in the assay on Rattus norvegicus [11] worked out at 193%. Besides, the inhibition constant Ki at D(3) dopamine receptor [4] was 631 nM; at D(2) dopamine receptor [5], 314 nM; at D(2) dopamine receptor [6], over 217 nM. The Control with Rattus norvegicus [2] turned out to be 575%.
For the molecule `CCCN1CCC[C@@H](c2cccc(C(=O)OC)c2)C1`, in the assay on Rattus norvegicus [1], the Activity is reported as 140%. Also, the Ki is over 1280 nM on D(3) dopamine receptor [4], over 1850 nM on D(2) dopamine receptor [5], over 217 nM at D(2) dopamine receptor [6] and 2170 nM at D(2) dopamine receptor [7]. In addition, the Control with Rattus norvegicus [2] worked out at 297%.
For the molecule `CCCN1CCC[C@@H](c2cccc(CC#N)c2)C1`, the Activity in the assay on Rattus norvegicus [1] is on record as 302%; in the assay on Rattus norvegicus [13], 57%; in the assay on Rattus norvegicus [12] it was 207%. For the same molecule, in the assay with Rattus norvegicus [11], the “Locomotor activity (% of control)” value is on record as 147%. In addition, the Ki at D(3) dopamine receptor [4] was 509 nM; on D(2) dopamine receptor [5], 69 nM; on D(2) dopamine receptor [6] it was over 217 nM; on D(2) dopamine receptor [7] it was 1230 nM. In addition, the results for the Control in the assay on Rattus norvegicus [15] and with Rattus norvegicus [2] were 16% and 887%, respectively.
Regarding `CN1CCC[C@@H](c2cccc(OS(=O)(=O)C(F)(F)F)c2)C1`, the results for the Ki at D(2) dopamine receptor [14] and on D(2) dopamine receptor [6] were 11800 nM and over 217 nM, respectively.
Consider `N#Cc1cccc([C@@H]2CCCN(CCCc3ccccc3)C2)c1`, for which the Activity in the assay on Rattus norvegicus [1] is 280%. Further, the Ki amounted to 36 nM on D(3) dopamine receptor [4], 29 nM on D(2) dopamine receptor [5], 60 nM at D(2) dopamine receptor [6] and 80 nM on D(2) dopamine receptor [7]. Also, the Control with Rattus norvegicus [2] is 484%.
Consider `CCCCN1CCC[C@@H](c2cccc(C#N)c2)C1`, for which the Activity with Rattus norvegicus [1] turned out to be 257%; in the assay with Rattus norvegicus [13] it was 71%. Further, the Control was 12% with Rattus norvegicus [15] and 1382% in the assay on Rattus norvegicus [2]. Besides, the Ki was over 217 nM on D(2) dopamine receptor [6] and 617 nM at D(2) dopamine receptor [7].
As for `C=CCN1CCC2c3cccc(C(N)=O)c3CCC21` (stereo not given), the inhibition constant Ki on D(3) dopamine receptor [4] was over 1500 nM; on D(2) dopamine receptor [5], over 1500 nM; on D(2) dopamine receptor [6], over 217 nM; on D(2) dopamine receptor [7], over 172 nM.
In the case of `CCCN1CCCC2c3cccc(OS(=O)(=O)C(F)(F)F)c3CCC21` (stereo in doubt; 45), the LMA in the assay with Rattus norvegicus [8] is recorded as 266. In addition, the inhibition constant (Ki) at Dopamine receptor is 744 nM; on D(3) dopamine receptor [9], 587 nM; on D(2) dopamine receptor [14], over 453 nM. In the assay on Rattus norvegicus [10], the Activity came to 94%.
For `CCCN1CCC[C@@H](c2cccc(O)c2)C1` [PRECLAMOL], the Activity with Rattus norvegicus [1] is recorded as 203%; in the assay with Rattus norvegicus [13], 25%; in the assay with Rattus norvegicus [3], 190; in the assay on Rattus norvegicus [12] it was 141. For the same molecule, the “Locomotor activity (% of control)” value in the assay with Rattus norvegicus [11] is 40%. Further, the Control is 12% in the assay on Rattus norvegicus [15] and 119% in the assay with Rattus norvegicus [2].
